# Target: T1, α-glucosidase GAM1p (Schwanniomyces occidentalis, UniProt Q401B1, S845A)
# T1 construct: gene GAM1; full-length gene with own signal peptide of 22 residues (960 aa precursor), no tag (native stop codon), AOX1 promoter vector pIB4, secreted by Komagataella phaffii GS115; glycosylated, about 143 kDa; concentrated on 50-kDa membrane
# Test: HPLC-PAD, MS and NMR of glucosylated products
# Format: biochemical
# Conditions: glucosyl acceptor; 20 mM piceid, 300 g/L maltose as donor, 20% DMSO, sodium acetate pH 4.5, 37 °C
# T1 sequence (Q401B1 entry or part of it S845A): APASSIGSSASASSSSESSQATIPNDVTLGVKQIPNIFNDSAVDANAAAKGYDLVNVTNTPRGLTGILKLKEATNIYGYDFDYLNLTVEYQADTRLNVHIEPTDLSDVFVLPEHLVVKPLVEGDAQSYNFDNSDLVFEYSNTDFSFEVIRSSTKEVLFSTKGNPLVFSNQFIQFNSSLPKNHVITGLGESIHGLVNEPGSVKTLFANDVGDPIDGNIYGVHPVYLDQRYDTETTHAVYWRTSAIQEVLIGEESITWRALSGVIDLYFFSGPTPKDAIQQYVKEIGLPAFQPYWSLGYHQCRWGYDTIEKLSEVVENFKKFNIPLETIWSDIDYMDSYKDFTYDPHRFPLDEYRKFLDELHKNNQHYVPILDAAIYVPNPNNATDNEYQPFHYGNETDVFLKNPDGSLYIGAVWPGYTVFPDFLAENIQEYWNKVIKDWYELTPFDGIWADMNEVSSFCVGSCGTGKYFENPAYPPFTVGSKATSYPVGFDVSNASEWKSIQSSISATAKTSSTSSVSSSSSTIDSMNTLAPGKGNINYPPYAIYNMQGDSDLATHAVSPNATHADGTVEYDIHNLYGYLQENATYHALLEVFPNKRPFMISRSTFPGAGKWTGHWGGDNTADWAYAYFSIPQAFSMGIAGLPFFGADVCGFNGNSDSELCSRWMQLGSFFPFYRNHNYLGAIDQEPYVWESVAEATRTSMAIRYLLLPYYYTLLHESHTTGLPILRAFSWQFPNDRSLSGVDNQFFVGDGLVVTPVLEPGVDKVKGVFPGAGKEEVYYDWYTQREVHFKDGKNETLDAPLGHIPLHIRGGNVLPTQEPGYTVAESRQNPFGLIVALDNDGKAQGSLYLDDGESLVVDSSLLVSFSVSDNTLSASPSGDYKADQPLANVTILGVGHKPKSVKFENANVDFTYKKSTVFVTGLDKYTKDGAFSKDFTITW
compound,measurement,value
OC[C@H]1O[C@@H](Oc2cc(O)cc(/C=C/c3ccc(O)cc3)c2)[C@H](O)[C@@H](O)[C@@H]1O (mixture of isomers) [piceid],"HPLC-PAD, MS and NMR of glucosylated products",GAM1p was only able to glycosylate piceid (polydatin)

# Source: PMC11330417, “Insights into the transglucosylation activity of α-glucosidase from Schwanniomyces occidentalis” (Applied Microbiology and Biotechnology, 2024)
